According to patent US9181161B2, “Use of dicyclohexylmethanol derivatives having antimicrobial properties” (MERCK PATENT GmbH, priority 2012, dated 2015):

Legend:
Assay type in all cases: cell-based
[1] = tested on: Staphylococcus epidermidis (ATCC 12228); test: Determination of the bacteriostatic action, microbe count after incubation; details: for Final microbe count: sample 2.0% in water/ethanol (12% of ethanol), mixed 1:1 with suspension, 35° C., 24 h or 48 h, initial count 1.6 × 10^4
Experimental: (§1) For sample preparation, substances I-1 and I-5 being investigated are homogeneously dispersed in an amount of 2.0% in a water/ethanol mixture (12% of ethanol) (=sample). A suspensions of Staphylococcus epidermidis (ATCC 12228) having an optical density of 1.0 in CASO broth (Merck 1.05459) is diluted 1:10000 with CASO broth. 500 μl of sample are added to […] of microorganism suspension, and the mixture is incubated at 35° C. for 24 h or 48 h. After the incubation, the test batches are diluted to −6 in 10 unit steps, and 0.1 ml of each is plated-out on CASO agar (Merck 1.05458) and incubated at 35° C. for 24 h.
(§2) In order to determine the initial microbe count, 0.1 ml of the bacteria suspension used are plated-out on CASO agar (Merck 1.05458) and incubated at 35° C. for 24 h.
(§3) The colonies are subsequently counted, and the microbe count per ml is determined compared with the negative control (12% of ethanol in water).
(§4) The concentrations indicated are the final use concentrations. In order to prepare the stock solution, double the final concentration are prepared in the solvent indicated. This is subsequently diluted 1:2 with the corresponding microbe suspension. In the case of Aspergillus brasiliensis, the microbe count determination is exceptionally carried out after 48 h, in the case of Malassezia furfur after 72 h.

[2] = tested on: Propionibacterium acnes (ATCC 6919); test: Microbe count after incubation, carried out in accordance with Example 1; details: for Δlog: t24 h vs t0; for Final microbe count: as Example 1, sample 2.0% in water/ethanol (12% of ethanol), initial count 8.3 × 10^4
Experimental: as §1, §2, §3
The experiment is carried out in accordance with Example 1. Instead of the action on Staphylococcus epidermidis, the action of substances I-1 and I-5 on the test microbe Propionibacterium acnes is investigated.
as §4

Aspergillus brasiliensis = test: Microbe count after incubation (Example 3); details: 1.0% final conc., H2O (12% of ethanol)
Experimental: as §1, §2, §3, §4

Candida albicans = test: Microbe count after incubation (Example 3); details: 1.0% final conc., H2O (12% of ethanol)
Experimental: as §1, §2, §3, §4

Corynebacterium xerosis = test: Microbe count after incubation (Example 3); details: 0.5% final conc., H2O
Experimental: as §1, §2, §3, §4

Malassezia furfur = test: Microbe count after incubation (Example 3); details: 1.0% final conc., H2O
Experimental: as §1, §2, §3, §4

Salmonella enterica = test: Microbe count after incubation (Example 3); details: 0.5% final conc., H2O
Experimental: as §1, §2, §3, §4

Staphylococcus aureus = test: Microbe count after incubation (Example 3); details: 1.0% final conc., H2O (12% of ethanol)
Experimental: as §1, §2, §3, §4

Row | Compound | Microbe count t24 h ([1]; 0.5% final conc., H2O (12% of ethanol), t0 1.6 × 10^4) | Δlog ([1]; 0.5% final conc., H2O (12% of ethanol), t24 h vs t0) | Final microbe count [1] | Microbe count t24 h ([2]; 0.25% final conc., H2O, t0 5.4 × 10^5) | Δlog ([2]; 0.25% final conc., H2O) | Microbe count t24 h ([2]; 0.5% final conc., H2O (12% of ethanol), t0 8.3 × 10^4) | Δlog ([2]; 0.5% final conc., H2O (12% of ethanol)) | Final microbe count [2] | Microbe count t24 h (Aspergillus brasiliensis; count after 48 h, t0 8.0 × 10^2) | Δlog (Aspergillus brasiliensis; count after 48 h vs t0) | Microbe count t24 h (Candida albicans; t0 6.0 × 10^3) | Δlog (Candida albicans; t24 h vs t0) | Microbe count t24 h (Corynebacterium xerosis; t0 1.0 × 10^6) | Δlog (Corynebacterium xerosis; t24 h vs t0) | Microbe count t24 h (Malassezia furfur; count after 72 h, t0 4.0 × 10^2) | Δlog (Malassezia furfur; count after 72 h vs t0) | Microbe count t24 h (Salmonella enterica; t0 1.0 × 10^6) | Δlog (Salmonella enterica; t24 h vs t0) | Microbe count t24 h (Staphylococcus aureus; t0 7.2 × 10^4) | Δlog (Staphylococcus aureus; t24 h vs t0)
1 | OC1CCC(C(O)C2CCCCC2)CC1 (stereo not shown) [Substance I-1, 4-(cyclohexylhydroxymethyl)cyclohexanol] | 7.4 × 10^3 | −0.34 | 7.4 × 10^3 CFU/ml | 2.4 × 10^5 | −0.35 | 0 | −4.92 | 0 CFU/ml | 0 | −2.90 | 0 | −3.78 | 1.3 × 10^6 | +0.11 | 0 | −2.60 | 5.1 × 10^6 | +0.71 | 0 | −4.86
2 | COC1CCC(C(O)C2CCCCC2)C(O)C1 (stereo not shown) [Substance I-5, 2-(cyclohexylhydroxymethyl)-5-methoxy-cyclohexanol] |  |  | 7.0 × 10^3 CFU/ml |  |  |  |  | 0 CFU/ml |  |  |  |  |  |  |  |  |  |  |  | 
